Source: paper PMC13083723 (Patterns, 2026)

Legend:
Vero-E6 cells = test: cells; assay type: cell-based; conditions: Chlorocebus sabaeus, Vero C1008, 24 h, read-out: PLD effect % in Vero-E6
CaCo2 cells = conditions: 10 μM in-assay concentration; ENZO library; amiodarone as positive control
A549 cells = test: PLD assay of predicted ENZO library compounds in A549 cells; conditions: Homo sapiens, A549, read-out: PLD effect % in A549

| SMILES | activation at 10 µM (Vero-E6 cells) [%] | PLD effect % in CaCo2 (CaCo2 cells) [%] | activation at 10 µM (A549 cells) [%] |
| --- | --- | --- | --- |
| CNCC[C@@H](Oc1ccccc1C)c1ccccc1 [Atomoxetine] | 27.7 | 0.7 | 70.9 |
| CN1CCCC(n2nc(Cc3ccc(Cl)cc3)c3ccccc3c2=O)CC1 (centres unmarked) [Azelastine] | 81.7 | 36.5 | 89.8 |
| CN(C)CCCN1c2ccccc2Sc2ccc(Cl)cc21 [Chlorpromazine] | 116 | 67.1 | 80.8 |
| C[C@@H](NCCCc1cccc(C(F)(F)F)c1)c1cccc2ccccc12 [Cinacalcet] | 43 | 20.9 | 105 |
| CN1CCC[C@@H]1CCO[C@](C)(c1ccccc1)c1ccc(Cl)cc1 [Clemastine] | 30.1 | 6.9 | 50.4 |
| CN(C)CCCN1c2ccccc2CCc2ccc(Cl)cc21 [Clomipramine] | 70.9 | 74.6 | 66.2 |
| CNCC[C@H](Oc1cccc2ccccc12)c1cccs1 [Duloxetine] | 95.9 | 84.9 | 108 |
| CNCCC(Oc1ccc(C(F)(F)F)cc1)c1ccccc1 (centres unmarked) [Fluoxetine, reference compound] | 111 | – | 108 |
| OCCN1CCN(CCCN2c3ccccc3Sc3ccc(C(F)(F)F)cc32)CC1 [Fluphenazine] | 90.3 | 95.4 | 77.4 |
| CN(C/C=C/c1ccccc1)Cc1cccc2ccccc12 [Naftifine] | -1.6 | −3.3 | 7.5 |
| CC(CN1c2ccccc2Sc2ccccc21)N(C)C (centres unmarked) [Promethazine] | 90.7 | 37.8 | 81.9 |
| CSc1ccc2c(c1)N(CCC1CCCCN1C)c1ccccc1S2 (centres unmarked) [Thioridazine] | 44.7 | 22.7 | 33.5 |
| CN1CCN(CCCN2c3ccccc3Sc3ccc(C(F)(F)F)cc32)CC1 [Trifluoperazine] | 102 | 63.2 | 97.8 |
